According to paper PMC5505983, “Naringenin Impairs Two-Pore Channel 2 Activity And Inhibits VEGF-Induced Angiogenesis” (Scientific Reports, 2017):

Legend:
hTPC1 = target: T1, hTPC1 (Homo sapiens, UniProt Q9ULQ1); experiment: whole-vacuole patch clamp, current activation; type: biochemical; conditions: activator; 90 nM cytosolic side; diC8 form; pH 7.5 cytosolic, pH 5.5 vacuolar
T1 construct: gene TPCN1; full-length with C-terminal EGFP, plasmid pSAT-hTPC1-EGFP; transiently expressed in vacuoles of Arabidopsis thaliana tpc1-2 mutant mesophyll protoplasts; dimer

hTPC2 = target: T2, hTPC2 (Homo sapiens, UniProt Q8NHX9); experiment: whole-vacuole patch clamp, dose-response of current inhibition; type: cell-based; conditions: read-out: apparent affinity constant
T2 construct: gene TPCN2; full-length with C-terminal EGFP, plasmid pSAT-hTPC2-EGFP; transiently expressed in vacuoles of Arabidopsis thaliana tpc1-2 mutant mesophyll protoplasts; dimer
T2 sequence (Q8NHX9 whole entry): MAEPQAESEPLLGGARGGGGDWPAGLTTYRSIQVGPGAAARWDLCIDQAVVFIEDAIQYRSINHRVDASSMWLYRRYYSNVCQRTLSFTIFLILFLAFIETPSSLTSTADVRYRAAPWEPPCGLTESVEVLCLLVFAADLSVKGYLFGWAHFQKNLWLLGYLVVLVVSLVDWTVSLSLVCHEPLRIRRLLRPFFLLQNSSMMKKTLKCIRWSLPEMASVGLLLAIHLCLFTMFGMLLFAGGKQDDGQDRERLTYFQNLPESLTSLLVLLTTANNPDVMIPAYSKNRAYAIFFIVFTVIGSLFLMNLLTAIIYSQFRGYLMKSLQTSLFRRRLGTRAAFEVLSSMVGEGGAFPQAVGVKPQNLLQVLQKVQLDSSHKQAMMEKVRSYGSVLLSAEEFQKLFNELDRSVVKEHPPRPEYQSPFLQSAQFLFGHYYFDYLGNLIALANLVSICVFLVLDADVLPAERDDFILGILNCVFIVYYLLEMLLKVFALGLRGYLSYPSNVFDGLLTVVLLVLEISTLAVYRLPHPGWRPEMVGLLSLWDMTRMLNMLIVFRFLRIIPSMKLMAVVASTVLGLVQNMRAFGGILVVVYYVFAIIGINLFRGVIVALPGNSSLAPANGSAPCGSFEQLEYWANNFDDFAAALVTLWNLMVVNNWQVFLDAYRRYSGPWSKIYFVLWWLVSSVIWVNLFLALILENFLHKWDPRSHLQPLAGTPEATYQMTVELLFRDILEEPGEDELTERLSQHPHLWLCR

| SMILES | whole-vacuole patch clamp, current activation (hTPC1) | IC50 (hTPC2) |
| --- | --- | --- |
| CCCCCCCC(=O)OC[C@H](COP(=O)(O)O[C@@H]1[C@H](O)[C@H](OP(=O)(O)O)[C@@H](O)[C@H](OP(=O)(O)O)[C@H]1O)OC(=O)CCCCCCC [PI(3,5)P2] | very small in comparison to those elicited by the addition of the phosphoinositide | – |
| O=C1C[C@@H](c2ccc(O)cc2)Oc2cc(O)cc(O)c21 [Nar, 5,7-dihydroxy-2-(4-hydroxyphenyl)chroman-4-one] | – | 180 ± 20 µM |
